Consider two compounds from patent publication US20090226909A1 (Tel HaShomer Medical Research Infrastructure and Services …, priority 2006, published 2009).

For assay [1] the following is noted: two patients with VKORC1 Asp36Tyr; Geisen 2005b; cited from earlier work.
The nature of assay [2]: Warfarin dose requirements in 99 unselected warfarin-treated subjects at stable INR, by VKORC1 Asp36Tyr (D36Y) carrier status. It is filed as in vivo, human.
Assay [3] can be described thus: Warfarin dose requirements in selected warfarin resistant and warfarin sensitive patients at stable therapeutic INR. It is filed as in vivo, human. The procedure:
Aliquots of fresh whole blood were drawn for INR determination and DNA extraction.
Data Analyses—Statistical analyses were performed using SPSS software (version 11.0, SPSS Inc.) and GB-STAT software package (version 8.0, Dynamic Microsystems Inc.). Relevant statistical applications are mentioned in the text, odds ratios (OR) are presented with 95% confidence limits, p value of <0.05 indicates statistical significance.

A short description of assay [4]: Effect of combined CYP2C9, VKORC1 and CALU genotypes on warfarin dose requirements (FIG. 2). It is filed as in vivo, human. The following applies: dotted line of FIG. 2.
Excerpt: The combined genotypes are ordered according to the model proposed by Wallin R, et al., 2001, assuming the reduced VKORC1 activity associated with the VKORC1 6853G→C polymorphism and the reduced activity of CALU associated with the CALU 73G→A (R4Q) polymorphism and assigning equal weight to CYP2C9 and VKORC1 genotypes. […] CYP2C9=cytochrome P450 2C9; VKORC1=vitamin K epoxide reductase component 1; CALU=calumenin;
For assay [5] the following is noted: CYP2C9*1 (wild type) allele; Higashi 2002, Sconce 2005; cited from earlier work.
Where [6] appears, read: 23 selected resistant and sensitive subjects.

“And” between values parts separate entries of the source, which are not always exact repeats. Equal values may be shown once.

With `CCC(c1ccccc1)c1c(O)c2ccccc2oc1=O` (stereo not shown) [phenprocoumon], in assay [1], the “phenprocoumon requirement to maintain INR between 2.0 and 3.0” value is 40-50 mg per week.
On to `CC(=O)CC(c1ccccc1)c1c(O)c2ccccc2oc1=O` (stereo not shown) [warfarin], for which the “INR maintained under warfarin, range” value in assay [2] (99 unselected warfarin-treated subjects) and in assay [3] (setting [6]) was 1.9-4.2 in each case. The “INR maintained under warfarin” value in assay [2] (99 unselected warfarin-treated subjects, stable INR) was determined as 2.7±0.5; in assay [3] (setting [6]), 2.7±0.5. Further, the “warfarin dose requirements, range” value is 70-105 mg/week and > 70 mg/week in assay [2] (carriers of VKORC1 Asp36Tyr (8/99), upper dose quartile); 8-70 mg/week in assay [2] (non-carriers of Asp36Tyr (n=91)). In addition, the “mean warfarin dose required” value in assay [2] (non-carriers of Asp36Tyr (n=91), mean±SD) came out at 42.7±7.5 mg/week. In assay [2] (whole unselected warfarin-treated group (N=99), stable INR), the mean warfarin dose came out at 39.4±7.8 mg/week. Further, the “mean warfarin weekly dose” value in assay [3] (warfarin resistant group (N=15, subjects 1-15)) is 112.8±29 mg/week and 112.8 mg/week; in assay [3] (warfarin sensitive group (N=8, subjects 16-23)) it was 10.5±2.32 mg/week and 10.5 mg/week. Further, in assay [4], the “median weight-normalized warfarin dose” value stood at 4.8 mg/day. Also, in assay [5], the “warfarin doses associated with CYP2C9*1 variant” value is given as 28-39 mg/week.
